Results as given in ChEMBL document CHEMBL1152804, “Relationship between brain tissue partitioning and microemulsion retention factors of CNS drugs” (J Med Chem, 2009).

Experiments:
[1] = Lipophilicity, log D at pH 7.4 by liquid chromatography; format: physicochemical; details: buffer
[2] = Lipophilicity, log P by microemulsion electrokinetic chromatography; format: physicochemical
[3] = Fraction unbound in rat brain; format: ADME, tissue-based
[4] = Lipophilicity, log P of the compound; format: physicochemical; details: octanol/water
[5] = Dissociation constant, pKa by capillary electrophoresis; format: physicochemical
[6] = Dissociation constant, pKa by mass spectrometry; format: physicochemical

Row | Compound | logD [1] | logP ([2]; read-out: logP) | logP ([4]; read-out: logP) | other results
1 | CSc1ccc2c(c1)N(CCC1CCCCN1C)c1ccccc1S2 (stereo not given) [THIORIDAZINE] | 4.4 | – | – | logP [2]: 4.75; fraction unbound [3]: 0.001
2 | CCCC(C)(COC(N)=O)COC(=O)NC(C)C (stereo not given) [CARISOPRODOL] | – | 2.4 | – | –
3 | CN1CCC[C@H]1c1cccnc1 [NICOTINE] | – | 1.22 | 1.39 | –
4 | COc1ccc(Cc2nccc3cc(OC)c(OC)cc23)cc1OC [PAPAVERINE] | – | 2.73 | – | –
5 | C=CCc1ccccc1OCC(O)CNC(C)C (stereo not given) [ALPRENOLOL] | – | 3.57 | 2.99 | –
6 | NC12CC3CC(CC(C3)C1)C2 [AMANTADINE] | < 0 | 2.82 | – | fraction unbound [3]: 0.233
7 | OCCOCCN1CCN(C2=Nc3ccccc3Sc3ccccc32)CC1 [QUETIAPINE] | 3.4 | 3.54 | – | pKa [5]: 6.91; pKa [6]: 3.64; fraction unbound [3]: 0.025
8 | CNS(=O)(=O)Cc1ccc2[nH]cc(CCN(C)C)c2c1 | < 0 | 1.41 | – | pKa [5]: 9.68; fraction unbound [3]: 0.724
9 | CN1CCCCC1CCN1c2ccccc2Sc2ccc([S+](C)[O-])cc21 (stereo not given) [MESORIDAZINE] | 1.7 | 4.26 | – | pKa [5]: 9.61; fraction unbound [3]: 0.016
10 | CC(NC(C)(C)C)C(=O)c1cccc(Cl)c1 (stereo not given) [BUPROPION] | – | 3.76 | 3.21 | –
11 | COc1ccc(C(CN(C)C)C2(O)CCCCC2)cc1 (stereo not given) [VENLAFAXINE] | 1 | 3.2 | – | –
12 | CCOC(=O)c1ccc(N)cc1 [BENZOCAINE] | – | 1.79 | 1.89 | –
13 | O=C(CCCN1CCC(O)(c2ccc(Cl)cc2)CC1)c1ccc(F)cc1 [HALOPERIDOL] | – | 3.53 | 3.67 | –
14 | CN1CCN(C2=Nc3cc(Cl)ccc3Nc3ccccc32)CC1 [CLOZAPINE] | 3.48 | 3.6 | 4.1 | –
15 | CNCCC=C1c2ccccc2CCc2ccccc21 [NORTRIPTYLINE] | 2.8 | 4.36 | 4.39 | –
16 | O=c1n(CCCN2CCN(c3cccc(Cl)c3)CC2)nc2ccccn12 [TRAZODONE] | 2.99 | 2.92 | – | –
17 | Cc1ncc2n1-c1ccc(Cl)cc1C(c1ccccc1F)=NC2 [MIDAZOLAM] | 3.38 | 3.65 | – | –
18 | Fc1ccc([C@@H]2CCNC[C@H]2COc2ccc3c(c2)OCO3)cc1 [PAROXETINE] | – | 4.07 | – | –
19 | CN1C(C(=O)Nc2ccccn2)=C(O)c2ccccc2S1(=O)=O [PIROXICAM] | – | 1.45 | 1.68 | –
20 | OCCN1CCN(CCCN2c3ccccc3Sc3ccc(Cl)cc32)CC1 [PERPHENAZINE] | 4.1 | 3.83 | – | pKa [5]: 8.04; pKa [6]: 3.72; fraction unbound [3]: 0.004
21 | COCCc1ccc(OCC(O)CNC(C)C)cc1 (stereo not given) [METOPROLOL] | – | 2.08 | – | –
22 | CCOC(=O)c1ncn2c1CN(C)C(=O)c1cc(F)ccc1-2 [FLUMAZENIL] | – | 0.92 | 1.64 | –
23 | CC(C)NCC(O)COc1cccc2[nH]ccc12 (stereo not given) [PINDOLOL] | – | 1.71 | – | –
24 | Clc1ccc2c(c1)C(N1CCNCC1)=Nc1ccccc1O2 [AMOXAPINE] | 2.4 | 3.71 | – | pKa [5]: 8.71; pKa [6]: 3.38; fraction unbound [3]: 0.01
25 | OCCOCCN1CCN(C(c2ccccc2)c2ccc(Cl)cc2)CC1 (stereo not given) [HYDROXYZINE] | 3.6 | – | – | logP [2]: 4
26 | c1ccc(-c2ccc(C(c3ccccc3)n3ccnc3)cc2)cc1 (stereo not given) [BIFONAZOLE] | – | 5.56 | – | –
27 | COC(=O)C(c1ccccc1)C1CCCCN1 (stereo not given) [METHYLPHENIDATE] | 0.4 | 2.67 | – | –

Row | Compound | logD [1] | logP ([2]; read-out: logP) | logP ([4]; read-out: logP) | other results
28 | Nc1nnc(-c2cccc(Cl)c2Cl)c(N)n1 [LAMOTRIGINE] | < 0 | 1.6 | – | –
29 | COC(=O)Nc1nc2ccc(C(=O)c3ccccc3)cc2[nH]1 [MEBENDAZOLE] | – | 2.26 | 2.42 | –
30 | CCCCNc1ccc(C(=O)OCCN(C)C)cc1 [TETRACAINE] | – | – | 3.46 | –
31 | O=C(c1ccccc1)c1ccc2n1CCC2C(=O)O (stereo not given) [KETOROLAC] | – | – | – | logP [4]: 1.26; logP [2]: 1.68
32 | CN1CCN2c3ncccc3Cc3ccccc3C2C1 (stereo not given) [MIRTAZAPINE] | 2.3 | 3.48 | – | pKa [5]: 7.79; pKa [6]: 3.59; fraction unbound [3]: 0.08
33 | Nc1c2c(nc3ccccc13)CCCC2 [TACRINE] | – | – | – | fraction unbound [3]: 0.124
34 | Cc1ccc(-c2nc3ccc(C)cn3c2CC(=O)N(C)C)cc1 [ZOLPIDEM] | 2.3 | 2.2 | – | –
35 | CCN(CC)CCOC(=O)c1ccc(N)cc1 [PROCAINE] | – | 2.18 | 2.2 | –
36 | CNCCCC12CCC(c3ccccc31)c1ccccc12 [MAPROTILINE] | – | 4.67 | – | pKa [5]: 10.6; fraction unbound [3]: 0.006
37 | COc1cc(NC(C)CCCN)c2ncccc2c1 (stereo not given) [PRIMAQUINE] | – | – | 3 | logP [2]: 3.8
38 | Cc1nc2n(c(=O)c1CCN1CCC(c3noc4cc(F)ccc34)CC1)CCCC2 [RISPERIDONE] | 1.71 | 2.86 | – | –
39 | C[C@]12CCC(=O)C=C1CC[C@@H]1[C@@H]2[C@@H](O)C[C@@]2(C)[C@H]1CC[C@]2(O)C(=O)CO [HYDROCORTISONE] | – | 2.38 | 1.65 | –
40 | CN(C)CCC=C1c2ccccc2C=Cc2ccccc21 [CYCLOBENZAPRINE] | – | 4.81 | – | –
41 | CN1CCN(C2=Nc3ccccc3Oc3ccc(Cl)cc32)CC1 [LOXAPINE] | – | – | – | fraction unbound [3]: 0.011
42 | CCN(CC)CCNC(=O)c1cc(Cl)c(N)cc1OC [METOCLOPRAMIDE] | – | – | – | fraction unbound [3]: 0.365
43 | CC(C)n1c(/C=C/C(O)CC(O)CC(=O)O)c(-c2ccc(F)cc2)c2ccccc21 (stereo not given) [FLUVASTATIN] | – | 3.92 | – | –
44 | Cc1cc2c(s1)Nc1ccccc1N=C2N1CCN(C)CC1 [OLANZAPINE] | – | 3.21 | – | pKa [5]: 8.5; pKa [6]: 4.66; fraction unbound [3]: 0.034
45 | CN1CCOC(c2ccccc2)c2ccccc2C1 (stereo not given) [NEFOPAM] | – | 3.2 | 3.02 | –
46 | Clc1cccc(Cl)c1N=C1NCCN1 [CLONIDINE] | – | 1.08 | 1.57 | –
47 | NC(=O)N1c2ccccc2C=Cc2ccccc21 [CARBAMAZEPINE] | – | 2.29 | 2.34 | –
48 | CN(C)CCCN1c2ccccc2Sc2ccc(Cl)cc21 [CHLORPROMAZINE] | – | – | 4.74 | –
49 | CN(C)CCC=C1c2ccccc2COc2ccccc21 [DOXEPIN] | 2.3 | 4.07 | 4.29 | pKa [5]: 9.37; fraction unbound [3]: 0.025
50 | CCCN1C[C@H](CSC)C[C@@H]2c3cccc4[nH]cc(c34)C[C@H]21 [PERGOLIDE] | 3 | 4.22 | – | pKa [5]: 8.78; fraction unbound [3]: 0.027
51 | CNC(=C[N+](=O)[O-])NCCSCc1ccc(CN(C)C)o1 [RANITIDINE] | – | 1.06 | 1.28 | –
52 | C[C@]12C[C@H](O)[C@H]3[C@@H](CCC4=CC(=O)CC[C@@]43C)[C@@H]1CC[C@@H]2C(=O)CO [CORTICOSTERONE] | – | 2.9 | 2.2 | –
53 | COc1ccc(CN(CCN(C)C)c2ccccn2)cc1 [PYRILAMINE] | – | – | 3.12 | –
